pIC50: −log10 of the molar value. Values joined by “and” are separate entries in the source; they are usually repeats but may differ in a detail not shown here. Identical values can stand only once.
Molecular target: T1, AXL (human catalytic domain) (Homo sapiens, UniProt P30530)
T1 construct: purchased Upstate Ltd. 14-512
T1 sequence (P30530 473-894): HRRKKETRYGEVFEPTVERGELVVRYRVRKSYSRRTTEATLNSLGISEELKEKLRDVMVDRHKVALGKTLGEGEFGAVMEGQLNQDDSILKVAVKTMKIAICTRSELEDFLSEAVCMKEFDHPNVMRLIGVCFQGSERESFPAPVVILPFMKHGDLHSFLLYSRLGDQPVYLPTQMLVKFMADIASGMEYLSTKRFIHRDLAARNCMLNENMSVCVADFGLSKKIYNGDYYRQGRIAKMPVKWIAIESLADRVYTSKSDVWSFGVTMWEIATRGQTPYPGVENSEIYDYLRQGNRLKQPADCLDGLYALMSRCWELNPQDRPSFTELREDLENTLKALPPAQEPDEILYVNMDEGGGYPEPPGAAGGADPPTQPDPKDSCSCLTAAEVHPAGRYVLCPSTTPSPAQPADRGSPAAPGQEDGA
Assay: AXL (human catalytic domain) Enzyme Activity Assay (IMAP fluorescence polarisation)
Type: biochemical
In short: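 Recombinant human AXL isoform 1 (aa473-894; final 15 nM) phosphorylated 100 nM fluorescein-CSK-tide with 150 μM ATP (KM) in HEPES pH 7.0/MgCl2/DTT buffer for 60 min at room temperature. IMAP fluorescence polarisation read after overnight binding; IC50 from 10-point 4-parameter logistic fits.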

[1] = further data set (WW-001 through WW-169, XX-001 through XX-469, YY-001 through YY-016, ZZ-001 through ZZ-003), 150 μM ATP
[2] = first data set, recombinant AXL isoform 1 aa473-894, 150 μM ATP

pIC50 [1] | pIC50 [2] | Compound
6.00 to 7.00 | – | c1cc(-c2cn[nH]c2)n2nc(Nc3ccc(OCCN4CCCC4)cc3)nc2c1 [XX-202, [5-(1H-Pyrazol-4-yl)-[1,2,4]triazolo[1,5-a]pyridin-2-yl]-[4-(2-pyrrolidin-1-yl-ethoxy)-phenyl]-amine]
5.00 to 6.00 | – | CCCCS(=O)(=O)n1cc(-c2cccc3nc(Nc4ccc(OCCN5CCCC5)cc4)nn23)cn1 [XX-296]
5.00 to 6.00 | – | Cc1cc(CNc2cccc(-c3cccc4nc(Nc5ccc(OCCN6CCCC6)cc5)nn34)c2)n(C)n1 [XX-262]
6.00 to 7.00 | – | CN1CCOc2cc(-c3cccc4nc(Nc5ccc(OCCN6CCCC6)cc5)nn34)ccc21 [XX-093]
≥ 7.00 | > 6.00 | c1cc(-c2ccc3c(c2)OCO3)n2nc(Nc3ccc(OCCN4CCCC4)cc3)nc2c1 [XX-021]
6.00 to 7.00 | – | Fc1ccc(Nc2nc3cccc(-c4ccc5c(c4)OCCO5)n3n2)cc1OCCN1CCCC1 [XX-134]
5.00 to 6.00 | 5.00 to 6.00 | O=C(Nc1nc2cccc(-c3ccn[nH]3)n2n1)C1CC1 [WW-053]
6.00 to 7.00 | – | CC(c1ccccc1)n1cc(-c2cccc3nc(Nc4ccc(OCCN5CCCC5)cc4)nn23)cn1 (centres unmarked) [XX-306]
6.00 to 7.00 | – | CCn1cc(-c2ccc(-c3cccc4nc(Nc5ccc(OCCN6CCCC6)cc5)nn34)cc2)cn1 [XX-191]
5.00 to 6.00 | – | O=C(Nc1cccc(-c2cccc3nc(Nc4ccc(OCCN5CCCC5)cc4)nn23)c1)Nc1ccccc1Cl [XX-232]
5.00 to 6.00 | – | O=C(O)Cn1cc(-c2cccc3nc(Nc4ccc(OCCN5CCCC5)cc4)nn23)cn1 [XX-440, (4-{2-[4-(2-Pyrrolidin-1-yl-ethoxy)-phenylamino]-[1,2,4]triazolo[1,5-a]pyridin-5-yl}-pyrazol-1-yl)-acetic acid]
5.00 to 6.00 | 5.00 to 6.00 | COc1cccc(Nc2cccc3nc(NC(=O)C4CC4)nn23)c1 [WW-160]
5.00 to 6.00 | – | CNC(=O)c1ccc(-c2cccc3nc(Nc4ccc(OCCN5CCCC5)cc4)nn23)cc1 [XX-269]
≥ 7.00 | > 6.00 | CN(C)CCOc1ccc(Nc2nc3cccc(-c4ccc5occc5c4)n3n2)cc1 [XX-051]
5.00 to 6.00 | – | Cc1cccc(CNc2cccc(-c3cccc4nc(Nc5ccc(OCCN6CCCC6)cc5)nn34)c2)c1 [XX-455]
5.00 to 6.00 | – | Cc1ccc(-c2nnc(COc3cccc(-c4cccc5nc(Nc6ccc(OCCN7CCCC7)cc6)nn45)c3)o2)cc1 [XX-406]
6.00 to 7.00 | > 6.00 | O=C(Nc1nc2cccc(-c3ccc(F)c(O)c3)n2n1)C1CC1 [WW-097]
6.00 to 7.00 | – | c1cc(NCc2ncc[nH]2)cc(-c2cccc3nc(Nc4ccc(OCCN5CCCC5)cc4)nn23)c1 [XX-261]
6.00 to 7.00 | – | Cn1nccc1-c1ccc(-c2cccc3nc(Nc4ccc(OCCN5CCCC5)cc4)nn23)cc1 [XX-189]
5.00 to 6.00 | 5.00 to 6.00 | O=C(Nc1nc2cccc(-c3ccccc3F)n2n1)C1CC1 [WW-025]
6.00 to 7.00 | – | Fc1cccc(Cn2cc(-c3cccc4nc(Nc5ccc(OCCN6CCCC6)cc5)nn34)cn2)c1 [XX-367]
5.00 to 6.00 | 5.00 to 6.00 | O=C(Nc1nc2cccc(-c3ccc(NS(=O)(=O)c4ccccc4)cc3)n2n1)C1CC1 [WW-156]

pIC50 [1] | pIC50 [2] | Compound
6.00 to 7.00 | – | CCN(CC)CCOc1ccc(Nc2nc3cccc(-c4ccc(OC)cc4)n3n2)cc1Cl [XX-417]
5.00 to 6.00 | 5.00 to 6.00 | O=C(Nc1nc2cccc(Nc3cccc(Cl)c3)n2n1)C1CC1 [WW-129]
6.00 to 7.00 | – | Fc1ccccc1CNc1cccc(-c2cccc3nc(Nc4ccc(OCCN5CCCC5)cc4)nn23)c1 [XX-238]
6.00 to 7.00 | – | COc1ccc(-c2cccc3nc(Nc4ccc(OCCN5CCCC5)cc4)nn23)nc1 [XX-235]
6.00 to 7.00 | – | CS(=O)(=O)Nc1ccc(-c2cccc3nc(Nc4ccc(OCCN5CCCC5)cc4)nn23)cc1 [XX-253]
≥ 7.00 | – | Cc1ccc(-c2cccc3nc(Nc4ccc(OCCN5CCCC5)cc4)nn23)cc1F [XX-280]
6.00 to 7.00 | – | c1ccc(COc2cccc(-c3cccc4nc(Nc5ccc(OCCN6CCCC6)cc5)nn34)c2)cc1 [XX-278]
6.00 to 7.00 | > 6.00 | O=C(Nc1nc2cccc(-c3ccc4c(c3)OCCO4)n2n1)C1CC1 [WW-102]
5.00 to 6.00 | – | CCOC(=O)c1cccc(-c2cccc3nc(Nc4ccc(OCCN5CCCC5)cc4)nn23)c1 [XX-089]
5.00 to 6.00 | 5.00 to 6.00 | O=C(Nc1nc2cccc(-c3ccc(C(F)(F)F)cc3)n2n1)C1CC1 [WW-031]
5.00 to 6.00 | 5.00 to 6.00 | O=C(Nc1nc2cccc(-c3ccc(Cl)cc3)n2n1)C1CC1 [WW-023]
≥ 7.00 | > 6.00 | CN(C)CCNC(=O)c1cccc(Nc2nc3cccc(-c4ccc5c(c4)OCCO5)n3n2)c1 [XX-080]
6.00 to 7.00 | – | Cc1ccc(CNc2cccc(-c3cccc4nc(Nc5ccc(OCCN6CCCC6)cc5)nn34)c2)o1 [XX-395]
6.00 to 7.00 | – | O=S(=O)(c1cccc(Cl)c1)n1cc(-c2cccc3nc(Nc4ccc(OCCN5CCCC5)cc4)nn23)cn1 [XX-285]
5.00 to 6.00 | 5.00 to 6.00 | O=C(Nc1nc2cccc(-c3cn[nH]c3)n2n1)C1CC1 [WW-060, cyclopropanecarboxylic acid [5-(1H-pyrazol-4-yl)-[1,2,4]triazolo[1,5-a]pyridin-2-yl]-amide]
≥ 7.00 | – | O=C(NCCN1CCCC1)c1ccc(Nc2nc3cccc(-c4ccc5c(c4)OCCO5)n3n2)cc1 [XX-110]
6.00 to 7.00 | – | COc1ccc(-c2cccc3nc(Nc4ccc(N(C)C(=O)C(C)N5CCOCC5)cc4)nn23)cc1 (centres unmarked) [XX-368]
5.00 to 6.00 | 5.00 to 6.00 | CN(C)CCNC(=O)c1ccc(-c2cccc3nc(NC(=O)C4CC4)nn23)cc1 [WW-009, 4-[2-(Cyclopropanecarbonyl-amino)-[1,2,4]triazolo[1,5-a]pyridin-5-yl]-N-(2-dimethylamino-ethyl)-benzamide]
6.00 to 7.00 | – | CCOc1cccc(-c2cccc3nc(Nc4ccc(OCCN5CCCC5)cc4)nn23)c1 [XX-337]
6.00 to 7.00 | – | Fc1ccc(CNc2cccc(-c3cccc4nc(Nc5ccc(OCCN6CCCC6)cc5)nn34)c2)cc1 [XX-456]
5.00 to 6.00 | 5.00 to 6.00 | CN(C)c1cccc(-c2cccc3nc(NC(=O)C4CC4)nn23)c1 [WW-071]
6.00 to 7.00 | – | Cc1cccc(S(=O)(=O)n2cc(-c3cccc4nc(Nc5ccc(OCCN6CCCC6)cc5)nn34)cn2)c1 [XX-377]

pIC50 [1] | pIC50 [2] | Compound
5.00 to 6.00 | > 6.00 | COc1ccc(-c2cccc3nc(Nc4ccc(OCCN5CCCC5)cc4)nn23)cc1 [XX-004]
6.00 to 7.00 | – | COc1cc(Nc2nc3cccc(-c4ccc5c(c4)OCCN5C)n3n2)ccc1OCCN1CCCC1 [XX-095]
5.00 to 6.00 | 5.00 to 6.00 | CS(=O)(=O)c1ccc(-c2cccc3nc(NC(=O)C4CC4)nn23)cc1 [WW-014]
5.00 to 6.00 | – | COc1ccccc1NC(=O)Nc1cccc(-c2cccc3nc(Nc4ccc(OCCN5CCCC5)cc4)nn23)c1 [XX-229]
6.00 to 7.00 | > 6.00 | CN(C)CCNC(=O)c1cccc(Nc2nc3cccc(-c4ccc5c(c4)OCO5)n3n2)c1 [XX-002]
5.00 to 6.00 | 5.00 to 6.00 | Cc1cccc(-c2cccc3nc(NC(=O)C4CC4)nn23)c1 [WW-034]
6.00 to 7.00 | – | CCN(CC)CCOc1cccc(Nc2nc3ccnc(-c4ccc5c(c4)OCCO5)n3n2)c1 [YY-009]
6.00 to 7.00 | – | CCN(CC)CCOc1cc(Nc2nc3cccc(-c4cccc(CO)c4)n3n2)ccn1 [XX-357]
5.00 to 6.00 | – | CCOc1ccc(-c2nccc3nc(Nc4cccc(OCCN(CC)CC)c4)nn23)cc1 [YY-005]
6.00 to 7.00 | – | c1cc(NCCCN2CCCC2)cc(Nc2nc3cccc(-c4ccc5c(c4)OCCO5)n3n2)c1 [XX-117]
6.00 to 7.00 | – | Cc1c(-c2cccc3nc(Nc4ccc(OCCN5CCCC5)cc4)nn23)cnn1-c1ccccc1 [XX-438]
6.00 to 7.00 | > 6.00 | c1cc(-c2ccc3c(c2)CCO3)n2nc(Nc3ccc(N4CCNCC4)cc3)nc2c1 [XX-059]
5.00 to 6.00 | 5.00 to 6.00 | CC(C)CNc1cccc2nc(NC(=O)C3CC3)nn12 [WW-079]
6.00 to 7.00 | – | Clc1ccc(-c2cccc3nc(Nc4ccc(OCCN5CCCC5)cc4)nn23)cc1Cl [XX-297]
5.00 to 6.00 | – | O=C(NCc1ccc(Cl)cc1)c1cccc(-c2cccc3nc(Nc4ccc(OCCN5CCCC5)cc4)nn23)c1 [XX-462, N-(4-Chloro-benzyl)-3-{2-[4-(2-pyrrolidin-1-yl-ethoxy)-phenylamino]-[1,2,4]triazolo[1,5-a]pyridin-5-yl}-benzamide]
6.00 to 7.00 | – | c1cc(Nc2nc3cccc(-c4ccc5c(c4)OCCO5)n3n2)cc(OCCN2CCCC2)c1 [XX-100]
5.00 to 6.00 | > 6.00 and 6.94 | COc1ccc(-c2cccc3nc(Nc4ccc(OCCNCc5ccccc5)cc4)nn23)cc1
6.00 to 7.00 | – | O=C(NCc1cccc(-c2cccc3nc(Nc4ccc(OCCN5CCCC5)cc4)nn23)c1)Nc1ccccc1 [XX-371]
6.00 to 7.00 | – | COc1ccc(COc2cccc(-c3cccc4nc(Nc5ccc(OCCN6CCCC6)cc5)nn34)c2)cc1 [XX-340]
≥ 7.00 | – | CCN(CC)CCOc1cc(Nc2nc3cccc(-c4ccc5c(c4)OCCO5)n3n2)ccn1 [XX-163]
6.00 to 7.00 | – | COCCn1cc(-c2cccc3nc(Nc4ccc(OCCN5CCCC5)cc4)nn23)cn1 [XX-349]
≥ 7.00 | > 6.00 | c1cc(-c2ccc3c(c2)OCCO3)n2nc(Nc3ccc(N4CCNCC4)cc3)nc2c1 [XX-060]

Source: patent US8431596B2 (Cancer Research Technology Limited, priority 2007, dated 2013)
